The target in assay [1] is T1, ALK (Homo sapiens, UniProt Q9UM73).
T1 construct: host or cells: baculovirus expression system
Description: ALK Kinase Assay (ELISA/TRF, PLC-γ substrate). The format is biochemical. The following applies: ALK kinase inhibition, 1 μM ATP; read-out: ALK Potency. The procedure, abridged:
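Time-resolved fluorescence ELISA using Eu-N1 PT66 antibody to detect phosphorylated PLC-γ (coated at 10 μg/mL). Enzyme at 30 ng/ml ALK; 15 min incubation, 37° C.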
For orientation: ELISA stands for enzyme-linked immunosorbent assay.

Assay [2] concerns the target T2, JAK2 (Homo sapiens, UniProt O60674).
T2 construct: host or cells: baculovirus expression system
Description: Recombinant Human JAK2 Kinase Assay (TRF). The format is biochemical. The following applies: JAK2 kinase inhibition, 0.2 μM ATP; read-out: JAK2 Potency. The procedure, abridged: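 Europium-labelled PY100 antibody reported tyrosine phosphorylation of a Neutravidin-captured biotinyl 15-mer peptide by JAK2 (baculovirus-expressed, 15 ng/ml). Conditions: 20 mM HEPES pH 7.2, 0.2 μM ATP, 1 mM MnCl2, 0.1% BSA, DMSO 2.5% final, 20 min at room temperature.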

T2 sequence (O60674 whole entry): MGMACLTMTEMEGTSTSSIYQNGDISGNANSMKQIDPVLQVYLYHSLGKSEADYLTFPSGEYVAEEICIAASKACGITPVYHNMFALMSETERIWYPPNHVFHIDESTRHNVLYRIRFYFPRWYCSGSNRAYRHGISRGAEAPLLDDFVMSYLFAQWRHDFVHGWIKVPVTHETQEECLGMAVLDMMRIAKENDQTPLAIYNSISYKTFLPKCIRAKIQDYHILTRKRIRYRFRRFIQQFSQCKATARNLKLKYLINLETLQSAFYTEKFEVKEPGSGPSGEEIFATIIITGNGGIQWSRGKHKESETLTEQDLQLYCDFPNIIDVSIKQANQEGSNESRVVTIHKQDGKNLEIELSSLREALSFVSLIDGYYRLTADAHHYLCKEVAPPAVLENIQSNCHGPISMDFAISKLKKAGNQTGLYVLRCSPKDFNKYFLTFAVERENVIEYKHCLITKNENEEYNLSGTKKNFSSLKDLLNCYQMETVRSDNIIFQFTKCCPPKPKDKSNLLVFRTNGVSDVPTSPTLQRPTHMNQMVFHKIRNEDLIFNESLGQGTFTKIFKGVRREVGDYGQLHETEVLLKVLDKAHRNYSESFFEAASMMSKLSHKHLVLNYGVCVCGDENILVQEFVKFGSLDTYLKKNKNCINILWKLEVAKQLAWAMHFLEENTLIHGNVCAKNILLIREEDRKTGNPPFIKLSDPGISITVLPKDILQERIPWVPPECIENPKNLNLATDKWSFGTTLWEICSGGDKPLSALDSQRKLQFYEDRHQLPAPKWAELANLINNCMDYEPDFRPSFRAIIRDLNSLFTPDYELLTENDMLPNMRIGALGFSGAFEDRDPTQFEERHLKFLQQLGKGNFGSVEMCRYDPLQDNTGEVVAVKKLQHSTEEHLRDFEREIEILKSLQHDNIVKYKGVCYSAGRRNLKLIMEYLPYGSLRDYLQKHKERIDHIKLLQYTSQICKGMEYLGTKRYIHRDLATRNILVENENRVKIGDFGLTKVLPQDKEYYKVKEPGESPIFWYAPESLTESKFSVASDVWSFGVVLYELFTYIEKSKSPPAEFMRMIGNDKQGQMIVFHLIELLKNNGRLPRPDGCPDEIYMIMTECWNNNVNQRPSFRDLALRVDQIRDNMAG
T1 sequence (Q9UM73 19-1620): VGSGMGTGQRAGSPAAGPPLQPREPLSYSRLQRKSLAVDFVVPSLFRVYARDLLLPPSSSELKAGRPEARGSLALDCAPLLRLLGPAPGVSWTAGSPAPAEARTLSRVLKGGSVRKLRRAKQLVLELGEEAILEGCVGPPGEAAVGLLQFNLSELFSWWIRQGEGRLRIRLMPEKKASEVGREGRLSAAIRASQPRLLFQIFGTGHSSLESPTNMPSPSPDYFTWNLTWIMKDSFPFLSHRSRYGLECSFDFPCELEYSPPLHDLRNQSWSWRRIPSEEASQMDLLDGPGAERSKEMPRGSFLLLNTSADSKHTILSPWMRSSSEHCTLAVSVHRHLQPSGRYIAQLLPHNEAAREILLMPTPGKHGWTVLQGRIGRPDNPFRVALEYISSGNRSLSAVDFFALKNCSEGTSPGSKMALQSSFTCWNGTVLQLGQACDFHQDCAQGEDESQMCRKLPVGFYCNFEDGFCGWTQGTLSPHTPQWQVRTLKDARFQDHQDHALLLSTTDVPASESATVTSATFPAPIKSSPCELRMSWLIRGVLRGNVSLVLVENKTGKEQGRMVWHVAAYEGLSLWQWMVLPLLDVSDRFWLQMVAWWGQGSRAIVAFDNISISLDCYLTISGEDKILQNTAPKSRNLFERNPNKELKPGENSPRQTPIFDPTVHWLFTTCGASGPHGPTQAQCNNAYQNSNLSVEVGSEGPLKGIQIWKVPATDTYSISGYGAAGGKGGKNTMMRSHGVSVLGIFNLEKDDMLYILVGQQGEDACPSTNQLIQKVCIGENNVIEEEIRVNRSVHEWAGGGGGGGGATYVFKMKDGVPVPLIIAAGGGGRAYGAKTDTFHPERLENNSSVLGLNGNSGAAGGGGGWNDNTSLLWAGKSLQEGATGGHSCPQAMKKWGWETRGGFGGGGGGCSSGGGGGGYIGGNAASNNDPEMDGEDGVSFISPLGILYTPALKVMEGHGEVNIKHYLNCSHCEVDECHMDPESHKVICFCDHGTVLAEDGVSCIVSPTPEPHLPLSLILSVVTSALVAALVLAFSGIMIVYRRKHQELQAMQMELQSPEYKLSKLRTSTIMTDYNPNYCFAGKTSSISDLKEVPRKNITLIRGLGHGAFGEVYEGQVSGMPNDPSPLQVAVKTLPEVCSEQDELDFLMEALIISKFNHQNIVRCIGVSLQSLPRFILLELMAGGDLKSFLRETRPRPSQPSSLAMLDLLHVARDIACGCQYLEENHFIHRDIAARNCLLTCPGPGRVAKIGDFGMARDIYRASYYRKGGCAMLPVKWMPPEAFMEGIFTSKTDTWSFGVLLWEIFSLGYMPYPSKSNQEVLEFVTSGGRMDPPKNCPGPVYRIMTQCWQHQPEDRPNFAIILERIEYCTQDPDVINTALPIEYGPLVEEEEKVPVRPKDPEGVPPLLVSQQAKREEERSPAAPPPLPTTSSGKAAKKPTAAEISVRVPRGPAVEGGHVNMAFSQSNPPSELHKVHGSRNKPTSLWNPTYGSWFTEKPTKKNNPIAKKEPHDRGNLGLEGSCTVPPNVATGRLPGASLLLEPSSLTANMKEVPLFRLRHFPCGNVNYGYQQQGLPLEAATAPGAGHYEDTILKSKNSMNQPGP

In the case of `COc1ccccc1-c1ccc2cnc(Nc3ccc(Cl)c(OCC4CCCN4C)c3)nn12` (centres unmarked) [Example 1011, [4-Chloro-3-(1-methyl-pyrrolidin-2-ylmethoxy)-phenyl]-[7-(2-methoxy-phenyl)-pyrrolo[2,1-f][1,2,4]triazin-2-yl]-amine], the IC50 in assay [1] was 100 to 1000 nM; in assay [2] it was < 100 nM.

With `COc1ccccc1-c1ccc2cnc(Nc3ccc(C4CCNC4)cc3)nn12` (centres unmarked) [Example 1012, [7-(2-Methoxy-phenyl)-pyrrolo[2,1-f][1,2,4]triazin-2-yl]-(4-pyrrolidin-3-yl-phenyl)-amine], the IC50 in assay [1] and in assay [2] was < 100 nM in each case.

As for `CN1CCCC1COc1cc(Nc2ncc3ccc(-c4cccc(S(C)(=O)=O)c4)n3n2)ccc1Cl` (centres unmarked) [Example 1013, [4-Chloro-3-(1-methyl-pyrrolidin-2-ylmethoxy)-phenyl]-[7-(3-methanesulfonyl-phenyl)-pyrrolo[2,1-f][1,2,4]triazin-2-yl]-amine], the results for the IC50 in assay [1] and in assay [2] were 1000 to 10000 nM and < 100 nM, respectively.

As to `CC(C)(C)NS(=O)(=O)c1cccc(-c2ccc3cnc(Nc4ccc(C5CCNCC5O)cc4)nn23)c1` (centres unmarked) [Example 1014, N-tert-Butyl-3-{2-[4-(3-hydroxy-piperidin-4-yl)-phenylamino]-pyrrolo[2,1-f][1,2,4]triazin-7-yl}-benzenesulfonamide], the IC50 in assay [1] and in assay [2] was < 100 nM each time.

For the compound `CC(C)S(=O)(=O)c1cccc(-c2ccc3cnc(Nc4ccc(Cl)c(OC[C@@H]5CCCN5)c4)nn23)c1` [Example 1015, [4-Chloro-3-((S)-1-pyrrolidin-2-ylmethoxy)-phenyl]-{7-[3-(propane-2-sulfonyl)-phenyl]-pyrrolo[2,1-f][1,2,4]triazin-2-yl}-amine], the IC50 in assay [1] was 100 to 1000 nM; in assay [2], < 100 nM.

As for `CC(C)S(=O)(=O)c1cccc(-c2ccc3cnc(Nc4ccc(Cl)c(OC[C@H]5CCCN5)c4)nn23)c1` [Example 1016, [4-Chloro-3-((R)-1-pyrrolidin-2-ylmethoxy)-phenyl]-{7-[3-(propane-2-sulfonyl)-phenyl]-pyrrolo[2,1-f][1,2,4]triazin-2-yl}-amine], the IC50 is 100 to 1000 nM in assay [1] and < 100 nM in assay [2].

Consider `CS(=O)(=O)c1cccc(-c2ccc3cnc(Nc4ccc(C5CCNCC5O)cc4)nn23)c1` (centres unmarked) [Example 1018, 4-{4-[7-(3-methanesulfonyl-phenyl)-pyrrolo[2,1-f][1,2,4]triazin-2-ylamino]-phenyl}-piperidine-3-ol], for which the IC50 in assay [1] is 100 to 1000 nM; in assay [2] it was < 100 nM.

Regarding `CS(=O)(=O)c1cccc(-c2ccc3cnc(Nc4ccc(Cl)c(OC[C@@H]5CCCN5)c4)nn23)c1` [Example 1020, [4-Chloro-3-((S)-1-pyrrolidin-2-ylmethoxy)-phenyl]-[7-(3-methanesulfonyl-phenyl)-pyrrolo[2,1-f][1,2,4]triazin-2-yl]-amine], the figures for the IC50 in assay [1] and in assay [2] were 1000 to 10000 nM and < 100 nM, respectively.

In the case of `CS(=O)(=O)c1cccc(-c2ccc3cnc(Nc4ccc(Cl)c(OC[C@H]5CCCN5)c4)nn23)c1` [Example 1021, [4-Chloro-3-((R)-1-pyrrolidin-2-ylmethoxy)-phenyl]-[7-(3-methanesulfonyl-phenyl)-pyrrolo[2,1-f][1,2,4]triazin-2-yl]-amine], the IC50 in assay [1] is 1000 to 10000 nM; in assay [2], < 100 nM.

Take `COc1ccc(Cl)cc1-c1ccc2cnc(Nc3ccc(C4CCN(CC(N)=O)CC4)cc3)nn12` [Example 1024]: the IC50 in assay [1] and in assay [2] was < 100 nM in each case.

With `CS(=O)(=O)c1cccc(-c2ccc3cnc(Nc4ccc(C5CCNCC5)nc4)nn23)c1` [Example 1025, (1′,2′,3′,4′,5′,6′-Hexahydro-[2,4′]bipyridinyl-5-yl)-[7-(3-methanesulfonyl-phenyl)-pyrrolo[2,1-f][1,2,4]triazin-2-yl]-amine], the figures for the IC50 in assay [1] and in assay [2] were 100 to 1000 nM and < 100 nM, respectively.

On to `COc1ccccc1-c1ccc2cnc(Nc3ccc(C4CCNCC4)nc3)nn12` [Example 1026, (1′,2′,3′,4′,5′,6′-Hexahydro-[2,4]bipyridinyl-5-yl)-[7-(2-methoxy-phenyl)-pyrrolo[2,1-f][1,2,4]triazin-2-yl]-amine], for which the IC50 in assay [1] and in assay [2] was < 100 nM throughout.

For the compound `CN1CCN(c2ccc(Nc3ncc4ccc(-c5ccc(CN6CCS(=O)(=O)CC6)cc5)n4n3)cc2)CC1` [Example 1031, {7-[4-(1,1-Dioxo-1$1(6)-thiomorpholin-4-ylmethyl)-phenyl]-pyrrolo[2,1-f][1,2,4]triazin-2-yl}-[4-(4-methyl-piperazin-1-yl)-phenyl]-amine], the IC50 in assay [1] and in assay [2] was < 100 nM each time.

For `O=S1(=O)CCN(Cc2ccc(-c3ccc4cnc(Nc5ccc(N6CCOCC6)cc5)nn34)cc2)CC1` [Example 1032, {7-[4-(1,1-Dioxo-1$1(6)-thiomorpholin-4-ylmethyl)-phenyl]-pyrrolo[2,1-f][1,2,4]triazin-2-yl}-(4-morpholin-4-yl-phenyl)-amine], the IC50 in assay [1] was 100 to 1000 nM; in assay [2] it was < 100 nM.

In the case of `c1ccc2ncc(-c3ccc4cnc(Nc5ccc(N6CCOCC6)cc5)nn34)cc2c1` [Example 1033, (4-Morpholin-4-yl-phenyl)-(7-quinolin-3-yl-pyrrolo[2,1-f][1,2,4]triazin-2-yl)-amine], the IC50 in assay [1] was 1000 to 10000 nM; in assay [2], < 100 nM.

Regarding `Clc1ncccc1-c1ccc2cnc(Nc3ccc(N4CCOCC4)cc3)nn12` [Example 1034, [7-(2-Chloro-pyridin-3-yl)-pyrrolo[2,1-f][1,2,4]triazin-2-yl]-(4-morpholin-4-yl-phenyl)-amine], the IC50 in assay [1] was 1000 to 10000 nM; in assay [2] it was < 100 nM.

On to `CN(C)Cc1ccccc1-c1ccc2cnc(Nc3ccc(N4CCOCC4)cc3)nn12` [Example 1035, [7-(2-Dimethylaminomethyl-phenyl)-pyrrolo[2,1-f][1,2,4]triazin-2-yl]-(4-morpholin-4-yl-phenyl)-amine], for which the results for the IC50 in assay [1] and in assay [2] were 1000 to 10000 nM and 100 to 1000 nM, respectively.

On to `CN1CCN(c2ccc(Nc3ncc4ccc(-c5cccnc5Cl)n4n3)cc2)CC1` [Example 1036, [7-(2-Chloro-pyridin-3-yl)-pyrrolo[2,1-f][1,2,4]triazin-2-yl]-[4-(4-methyl-piperazin-1-yl)-phenyl]-amine], for which the IC50 in assay [1] is 100 to 1000 nM; in assay [2] it was < 100 nM.

In the case of `CN1CCN(c2ccc(Nc3ncc4ccc(-c5cnc6ccccc6c5)n4n3)cc2)CC1` [Example 1037, [4-(4-Methyl-piperazin-1-yl)-phenyl]-(7-quinolin-3-yl-pyrrolo[2,1-f][1,2,4]triazin-2-yl)-amine], the IC50 in assay [1] and in assay [2] was < 100 nM in each case.

Regarding `Cc1ccncc1-c1ccc2cnc(Nc3ccc(N4CCOCC4)cc3)nn12` [Example 1038, [7-(4-Methyl-pyridin-3-yl)-pyrrolo[2,1-f][1,2,4]triazin-2-yl]-(4-morpholin-4-yl-phenyl)-amine], the IC50 in assay [1] is 1000 to 10000 nM; in assay [2], < 100 nM.

Take `Cc1ccncc1-c1ccc2cnc(Nc3ccc(N4CCN(C)CC4)cc3)nn12` [Example 1039, [4-(4-Methyl-piperazin-1-yl)-phenyl]-[7-(4-methyl-pyridin-3-yl)-pyrrolo[2,1-f][1,2,4]triazin-2-yl]-amine]: the IC50 in assay [1] is 100 to 1000 nM; in assay [2] it was < 100 nM.

`Fc1ncccc1-c1ccc2cnc(Nc3ccc(N4CCOCC4)cc3)nn12` [Example 1040, [7-(2-Fluoro-pyridin-3-yl)-pyrrolo[2,1-f][1,2,4]triazin-2-yl]-(4-morpholin-4-yl-phenyl)-amine]: the results for the IC50 in assay [1] and in assay [2] were 100 to 1000 nM and < 100 nM, respectively.

Take `CN1CCN(c2ccc(Nc3ncc4ccc(-c5cccnc5F)n4n3)cc2)CC1` [Example 1041, [7-(2-Fluoro-pyridin-3-yl)-pyrrolo[2,1-f][1,2,4]triazin-2-yl]-[4-(4-methyl-piperazin-1-yl)-phenyl]-amine]: the values for the IC50 in assay [1] and in assay [2] were 100 to 1000 nM and < 100 nM, respectively.

With `Cc1nc(-c2ccc3cnc(Nc4ccc(N5CCN(C)CC5)cc4)nn23)cn1C` [Example 1042, [7-(1,2-Dimethyl-1H-imidazol-4-yl)-pyrrolo[2,1-f][1,2,4]triazin-2-yl]-[4-(4-methyl-piperazin-1-yl)-phenyl]-amine], the IC50 in assay [1] is 100 to 1000 nM; in assay [2], < 100 nM.

In the case of `CN1CCN(c2ccc(Nc3ncc4ccc(-c5cn(C)cn5)n4n3)cc2)CC1` [Example 1043, [7-(1-Methyl-1H-imidazol-4-yl)-pyrrolo[2,1-f][1,2,4]triazin-2-yl]-[4-(4-methyl-piperazin-1-yl)-phenyl]-amine], the IC50 in assay [1] was 100 to 1000 nM; in assay [2], < 100 nM.

Consider `Cc1nc(-c2ccc3cnc(Nc4ccc(N5CCOCC5)cc4)nn23)cn1C` [Example 1044, [7-(1,2-Dimethyl-1H-imidazol-4-yl)-pyrrolo[2,1-f][1,2,4]triazin-2-yl]-(4-morpholin-4-yl-phenyl)-amine], for which the results for the IC50 in assay [1] and in assay [2] were 1000 to 10000 nM and < 100 nM, respectively.

Consider `Cn1cnc(-c2ccc3cnc(Nc4ccc(N5CCOCC5)cc4)nn23)c1` [Example 1045, [7-(1-Methyl-1H-imidazol-4-yl)-pyrrolo[2,1-f][1,2,4]triazin-2-yl]-(4-morpholin-4-yl-phenyl)-amine], for which the results for the IC50 in assay [1] and in assay [2] were 1000 to 10000 nM and < 100 nM, respectively.

As to `Cc1cc(-c2ccc3cnc(Nc4ccc(N5CCN(C)CC5)cc4)nn23)cnc1F` [Example 1046, [7-(6-Fluoro-5-methyl-pyridin-3-yl)-pyrrolo[2,1-f][1,2,4]triazin-2-yl]-[4-(4-methyl-piperazin-1-yl)-phenyl]-amine], the IC50 in assay [1] was 100 to 1000 nM; in assay [2], < 100 nM.
